Read-outs that look alike come from different tables or passages of the source.
What was measured:
C57BL/6J mice = assay type: in vivo
Experimental: Blood pressure telemetry (FIG. 2) and sleep studies in mice. […] Then blood pressure was measured at baseline (Day 0). The leptin osmotic pump was implanted SC to deliver 120 μg/day of the hormone, which increased leptin levels to 40-50 ng/ml which corresponded to plasma leptin levels in severely obese mice. Blood pressure measured after 2 days of leptin infusion (Day 2) followed by removal of the osmotic pump. On Day 5, the carotid artery bifurcation was exposed and co-assembled FTY720-PA filamentous nanostructures were applied bilaterally (5 μg/side). […] The leptin osmotic pump was reinserted on Day 9 and blood pressure was measured after two days of leptin infusion on Day 11. The pump was removed on Day 12 and reinserted on Day 20 followed by blood pressure measurement on Day 22. […] Leptin increased mean arteria blood pressure by 13±6 mm Hg and this effect was abolished by FTY720. […] Allowing 10% attrition rate, it will require 28 male (14 DIO and 14 lean) and 28 female C57BL/6J mice (14 DIO and 14 lean).

[1] = humans; cited from earlier work
[2] = mice; cited from earlier work
[3] = Maximum solubility at pH 7.4; assay type: physicochemical

| Compound | increase of mean arterial blood pressure (C57BL/6J mice; leptin infusion) | half-life [1] | half-life [2] | leptin-induced hypertension (C57BL/6J mice; FTY720 in Matrigel at 0.3 mg/kg/day applied to CB (FIG. 2)) | leptin-induced hypertension (C57BL/6J mice; administered to CB locally) | effect on leptin-induced increase of mean arterial blood pressure (C57BL/6J mice; mouse, in vivo) | solubility [3] |
| --- | --- | --- | --- | --- | --- | --- | --- |
| Leptin: hormone delivered by SC osmotic pump to induce hypertension | 13±6 mm Hg |  |  |  |  |  |  |
| CCCCCCCCc1ccc(CCC(N)(CO)CO)cc1.Cl [FTY720, 2-Amino-2-[2-(4-octyl-phenyl)-ethyl]-propane-1,3-diol hydrochloride] |  | 7 days | 9 h | abolished leptin-induced hypertension | abolished leptin-induced hypertension | abolished | 81 µM |

— patent US11229614B2, “Supramolecular hydrogel applications to the carotid bodies to treat hypertension and sleep apnea in obesity” (THE JOHNS HOPKINS UNIVERSITY, priority 2017, dated 2022)
